Results: ChEMBL document CHEMBL5131572, “Identification of a Potent, Selective, and Brain-Penetrant Rho Kinase Inhibitor and its Activity in a Mouse Model of Huntington's Disease” (J Med Chem, 2022)
≈ marks a conversion by molar mass, not a printed value.

Legend:
[1] = Inhibition of ROCK in rat A7R5 cells assessed as cofilin serine 3 phosphorylation incubated for 1 hr by ICW assay; settings: A7R5, 1 h
[2] = biological target: T1, cGMP-dependent protein kinase 1 (Homo sapiens, UniProt Q13976); experiment: Inhibition of full length recombinant N-terminal GST-tagged human PKG expressed in baculovirus infected Sf9 insect cells using RSK as substrate preincubated for 15 mins followed by substrate addition and measured after 30 mins in presence of ATP by ADP Glo kinase assay
T1 sequence (Q13976 whole entry): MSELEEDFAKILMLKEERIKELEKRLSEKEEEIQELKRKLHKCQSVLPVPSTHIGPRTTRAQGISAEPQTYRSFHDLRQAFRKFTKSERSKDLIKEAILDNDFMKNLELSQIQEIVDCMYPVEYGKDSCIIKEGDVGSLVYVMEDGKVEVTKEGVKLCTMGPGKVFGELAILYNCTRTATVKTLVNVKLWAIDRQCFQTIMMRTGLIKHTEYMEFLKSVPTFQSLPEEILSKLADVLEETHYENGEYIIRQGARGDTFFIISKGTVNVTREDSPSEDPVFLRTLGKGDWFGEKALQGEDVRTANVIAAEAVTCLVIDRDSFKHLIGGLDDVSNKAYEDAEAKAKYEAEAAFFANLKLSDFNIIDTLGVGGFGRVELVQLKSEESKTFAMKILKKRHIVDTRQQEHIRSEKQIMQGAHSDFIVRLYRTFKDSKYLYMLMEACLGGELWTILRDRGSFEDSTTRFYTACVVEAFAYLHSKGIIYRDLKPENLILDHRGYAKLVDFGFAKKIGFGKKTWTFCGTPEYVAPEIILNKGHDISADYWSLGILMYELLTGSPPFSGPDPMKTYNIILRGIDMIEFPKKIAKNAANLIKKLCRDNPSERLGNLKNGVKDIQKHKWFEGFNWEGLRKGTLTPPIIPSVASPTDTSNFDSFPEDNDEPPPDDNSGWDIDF

[3] = biological target: Rho-associated protein kinase 2 (Homo sapiens, UniProt O75116); experiment: Inhibition of recombinant N-terminal GST-tagged human ROCK2 (5 to 554 residues) expressed in baculovirus infected Sf9 cells using S6K as substrate incubated for 30 mins in presence of ATP by ADP Glo kinase assay
[4] = Lipophilicity, logP of compound; type: physicochemical; settings: octanol/water
MDR1 = experiment: in vitro; settings: dog, MDCK-MDR1
Description: Efflux ratio of apparent permeability across basolateral to apical side to apical to basolateral side in MDCK-MDR1 cells at 10 uM measured after 1 hr by LC-MS/MS analysis

[5] = Distribution coefficient, logD of compound by chromatographic method; type: physicochemical; settings: octanol/water
[6] = Kinetic solubility of the compound in pH 7.4 PBS buffer incubated for 2 hrs using orbital shaker by LC-UV mass spectrometry; type: physicochemical; settings: read-out: Kinetic_solubility
[7] = Metabolic stability in mouse liver microsomes assessed as intrinsic clearance at 1 uM measured upto 40 mins in presence of NADPH by LC-MS/MS analysis; type: ADME, Microsome; settings: read-out: CLH
[8] = Apparent permeability in MDCK-MDR1 cells at 10 uM after 1 hr by LC-MS/MS analysis; type: ADME, cell-based, Canis lupus familiaris; settings: dog
[9] = Inhibition of ROCK in human PANC-1 cells assessed as decrease in MYPT1 phosphorylation at T850 residues measured after 1 hr by Western blot analysis; type: cell-based; settings: PANC-1, 1 h
[10] = biological target: RAC-alpha serine/threonine-protein kinase (Homo sapiens, UniProt P31749); experiment: Inhibition of AKT (unknown origin)
[11] = Inhibition of ROCK in rat A7R5 cells assessed as increase in AKT phosphorylation measured after 30 mins by alphaLISA Surefire multiplex assay; type: cell-based; settings: A7R5, 0.5 h
[12] = Oral bioavailability in C57BL/6 mouse at 10 mg/kg; type: ADME, organism-based; settings: in vivo
[13] = Unbound AUC in C57BL/6 mouse brain at 10 mg/kg, po by LC-MS/MS analysis; type: ADME, organism-based; settings: in vivo
[14] = Clearance in C57BL/6 mouse plasma at 2 mg/kg, iv; type: ADME, organism-based
[15] = Unbound AUC in C57BL/6 mouse plasma at 10 mg/kg, po by LC-MS/MS analysis; type: ADME, organism-based; settings: in vivo
Cytochrome P450 1A2 = biological target: T2, Cytochrome P450 1A2 (Homo sapiens, UniProt P05177); experiment: Time dependent inhibition of CYP1A2 in pooled human liver microsomes using […] as substrate preincubated for 30 mins in presence of NADPH followed by substrate addition and measured after 10 mins by LC-MS/MS analysis; type: ADME, Microsome
T2 sequence (P05177 whole entry): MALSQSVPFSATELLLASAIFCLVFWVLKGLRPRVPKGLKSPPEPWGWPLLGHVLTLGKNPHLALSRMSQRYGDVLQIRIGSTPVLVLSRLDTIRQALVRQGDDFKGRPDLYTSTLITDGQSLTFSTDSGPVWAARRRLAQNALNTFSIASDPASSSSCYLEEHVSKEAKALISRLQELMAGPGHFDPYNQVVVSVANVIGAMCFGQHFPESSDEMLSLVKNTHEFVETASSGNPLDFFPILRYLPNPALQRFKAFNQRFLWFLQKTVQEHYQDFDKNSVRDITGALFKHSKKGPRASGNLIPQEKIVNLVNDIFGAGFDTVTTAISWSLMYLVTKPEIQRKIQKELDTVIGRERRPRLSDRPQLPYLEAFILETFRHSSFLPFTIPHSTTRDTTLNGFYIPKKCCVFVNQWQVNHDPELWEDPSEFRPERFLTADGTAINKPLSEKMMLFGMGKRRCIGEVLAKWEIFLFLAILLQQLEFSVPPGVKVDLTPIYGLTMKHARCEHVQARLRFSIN

[16] = Hepatic extraction ratio in C57BL/6 mouse at 2 mg/kg, iv; type: ADME, organism-based; settings: in vivo, read-out: ERH
[17] = Ratio of unbound AUC in C57BL/6 mouse brain at 10 mg/kg, po to IC50 for Inhibition of ROCK in rat A7r5 cells; type: organism-based; settings: in vivo

Rho-associated protein kinase 2, sequence (O75116 whole entry, the tested form may be a part): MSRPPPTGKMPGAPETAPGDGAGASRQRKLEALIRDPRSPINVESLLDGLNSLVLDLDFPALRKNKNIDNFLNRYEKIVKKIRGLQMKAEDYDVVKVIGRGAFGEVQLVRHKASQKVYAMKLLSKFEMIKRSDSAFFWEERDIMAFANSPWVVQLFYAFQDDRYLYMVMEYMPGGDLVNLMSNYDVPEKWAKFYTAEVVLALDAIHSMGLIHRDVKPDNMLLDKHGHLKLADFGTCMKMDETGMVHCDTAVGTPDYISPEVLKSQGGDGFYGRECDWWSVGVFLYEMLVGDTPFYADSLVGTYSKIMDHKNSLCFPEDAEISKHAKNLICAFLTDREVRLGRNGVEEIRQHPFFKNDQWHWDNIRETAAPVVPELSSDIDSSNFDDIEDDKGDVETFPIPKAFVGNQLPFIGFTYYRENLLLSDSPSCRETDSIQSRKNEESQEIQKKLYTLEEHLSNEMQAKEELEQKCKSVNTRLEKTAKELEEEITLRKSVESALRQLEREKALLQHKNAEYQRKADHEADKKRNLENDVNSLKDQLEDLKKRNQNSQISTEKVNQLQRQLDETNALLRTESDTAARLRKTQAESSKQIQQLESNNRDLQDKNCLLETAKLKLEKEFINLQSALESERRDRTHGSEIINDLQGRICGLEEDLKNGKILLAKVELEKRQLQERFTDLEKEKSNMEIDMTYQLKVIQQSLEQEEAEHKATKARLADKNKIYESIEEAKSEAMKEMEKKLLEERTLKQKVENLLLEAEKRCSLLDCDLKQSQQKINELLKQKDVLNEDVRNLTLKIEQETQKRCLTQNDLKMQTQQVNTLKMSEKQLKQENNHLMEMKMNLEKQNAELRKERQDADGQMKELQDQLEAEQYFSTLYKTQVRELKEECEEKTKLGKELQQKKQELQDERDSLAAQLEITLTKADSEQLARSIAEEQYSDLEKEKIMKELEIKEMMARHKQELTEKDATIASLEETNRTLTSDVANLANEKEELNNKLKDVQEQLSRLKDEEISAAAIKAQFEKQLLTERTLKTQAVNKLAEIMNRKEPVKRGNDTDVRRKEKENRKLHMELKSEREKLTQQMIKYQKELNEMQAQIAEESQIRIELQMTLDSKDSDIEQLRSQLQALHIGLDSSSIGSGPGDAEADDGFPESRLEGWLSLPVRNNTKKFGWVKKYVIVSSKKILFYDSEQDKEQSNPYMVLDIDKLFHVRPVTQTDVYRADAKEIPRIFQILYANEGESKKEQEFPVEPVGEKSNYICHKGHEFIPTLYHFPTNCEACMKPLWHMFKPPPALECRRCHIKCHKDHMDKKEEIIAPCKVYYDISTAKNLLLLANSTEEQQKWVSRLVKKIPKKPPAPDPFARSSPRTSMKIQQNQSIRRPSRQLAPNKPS
RAC-alpha serine/threonine-protein kinase, sequence (P31749 whole entry): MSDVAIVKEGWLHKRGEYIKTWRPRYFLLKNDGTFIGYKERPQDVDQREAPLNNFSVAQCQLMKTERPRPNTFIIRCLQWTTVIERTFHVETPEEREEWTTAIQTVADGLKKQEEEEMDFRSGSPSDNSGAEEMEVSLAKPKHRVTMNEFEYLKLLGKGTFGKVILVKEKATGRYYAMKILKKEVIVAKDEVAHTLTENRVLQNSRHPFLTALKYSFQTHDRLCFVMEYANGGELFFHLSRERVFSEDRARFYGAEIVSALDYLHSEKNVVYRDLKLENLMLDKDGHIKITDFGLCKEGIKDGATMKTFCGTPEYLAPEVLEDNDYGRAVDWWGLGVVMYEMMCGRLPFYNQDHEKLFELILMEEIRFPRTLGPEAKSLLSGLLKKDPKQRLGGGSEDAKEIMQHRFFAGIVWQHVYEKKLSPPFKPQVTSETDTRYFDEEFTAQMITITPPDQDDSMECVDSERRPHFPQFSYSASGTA

Row | SMILES | IC50 [1] [nM] | IC50 [2] [nM] | IC50 [3] [nM] | solubility kinetic at 2 h [6] [µM] | also measured
1 | COc1cccc([C@@H](C)NC(=O)[C@H]2CC[C@H](c3ccncc3)CC2)c1 | 974 | 5030 | 98 | – | –
2 | COc1cccc([C@@H](C)NC(=O)N2CC[C@H](c3ccncc3)C[C@@H]2C)c1 | 3310 | 48800 | 1640 | – | –
3 | C[C@@H]1CN(c2ccncc2F)CCN1C(=O)N[C@H](C)c1cccc2nccn12 | 18 | 8140 | – | – | –
4 | COc1cccc([C@@H](C)NC(=O)c2ccc(-c3ccnc(F)c3)cn2)c1 | 1030 | – | 50 | – | –
5 | COc1cccc([C@@H](C)NC(=O)N2CC[C@@H](c3ccncc3)C[C@H]2C)c1 | 249 | 19400 | 35 | – | –
6 | COc1cccc([C@@H](C)NC(=O)N2CCN(c3ccncn3)C[C@H]2C)c1 | 264 | 36500 | 23 | – | –
7 | COc1ccc(F)c([C@@H](C)NC(=O)N2CCN(c3ccncc3F)C[C@H]2C)c1 | 108 | 13100 | 7 | – | –
8 | COc1cccc([C@@H](C)NC(=O)N2CC[C@H](c3ccncc3)C[C@H]2C)c1 | 71 | 23000 | 9 | – | –
9 | COc1cc([C@@H](C)NC(=O)N2CCN(c3ccncc3F)C[C@H]2C)ccc1F | 33 | 2340 | 3 | – | –
10 | COc1cccc([C@@H](C)NC(=O)N2CCN(c3ccncc3F)C[C@H]2C)c1F | 323 | 50900 | – | 150 (≈ 58.6 µg/mL) | logP [4]: 2.6; efflux ratio at 1 h, 10 µM (MDR1): 1.3; chromatographic logD [5]: 2.3; CLint scaled at 1 µM [7]: 79 mL/min/kg; Papp at 1 h, 10 µM [8]: 79.7 ×10⁻⁶ cm/s
11 | COc1cccc([C@@H](C)NC(=O)c2ccc(-c3ccnc(F)c3)nc2)c1 | 290 | 320 | 26 | – | IC50 [9]: 1870 nM; IC50 [10]: 9260 nM; EC50 [11]: 3210 nM
12 | C[C@@H](N)[C@H]1CC[C@H](C(=O)Nc2ccncc2)CC1 [Y-27632] | 3030 | – | – | – | logP [4]: 0.62; chromatographic logD [5]: 1.03
13 | COc1cc(F)cc([C@@H](C)NC(=O)N2CCN(c3ccncc3F)C[C@H]2C)c1 | 15 | 1700 | – | 140 (≈ 54.7 µg/mL) | bioavailability [12]: 78%; logP [4]: 2.7; fAUC [13]: 40 nM·kg·h/mg; clearance [14]: 85 mL/min/kg; fAUC [15]: 30 nM·kg·h/mg; chromatographic logD [5]: 2.4; IC50 (Cytochrome P450 1A2): 1100 nM; CLint scaled at 1 µM [7]: < 65 mL/min/kg; Papp at 1 h, 10 µM [8]: 98.4 ×10⁻⁶ cm/s
14 | CS(=O)(=O)Nc1cccc(CC(=O)Nc2cc(-c3ccnc(F)c3)cs2)c1 | – | – | – | 77 (≈ 31.2 µg/mL) | logP [4]: 3.45
15 | C[C@@H]1CN(c2ccncc2F)CCN1C(=O)N[C@H](C)c1cccn2nccc12 | 14 | 6650 | 2 | > 200 | logP [4]: 2.1; efflux ratio at 1 h, 10 µM (MDR1): 3.7; chromatographic logD [5]: 1.6; CLint scaled at 1 µM [7]: 169 mL/min/kg; Papp at 1 h, 10 µM [8]: 104 ×10⁻⁶ cm/s
16 | COc1cccc([C@@H](C)NC(=O)N2CCN(c3ccncc3F)CC2)c1 | 126 | 1830 | 7 | – | –

Row | SMILES | IC50 [1] [nM] | IC50 [2] [nM] | IC50 [3] [nM] | solubility kinetic at 2 h [6] [µM] | also measured
17 | COc1cccc([C@@H](C)NC(=O)N2CCC(c3ccncc3)CC2)c1 | 673 | 52800 | 74 | – | –
18 | O=S(=O)(c1cccc2c(O)nccc12)N1CCCNCC1 [HYDROXYFASUDIL] | 3820 | – | – | > 200 | logP [4]: 1.43
19 | COc1cccc([C@@H](C)NC(=O)N2CC[C@@H](c3ccncc3)C[C@@H]2C)c1 | 4930 | 53700 | 1300 | – | –
20 | COc1cccc([C@@H](C)NC(=O)c2ccc(-c3ccnc(F)c3)cc2)c1 | 77 | 17 | – | – | IC50 [10]: 2370 nM
21 | COc1cccc([C@@H](C)NC(=O)N2CCN(c3ccncc3)CC2)c1 | 1460 | – | 4790 | – | –
22 | COc1cccc([C@@H](C)NC(=O)c2ccc(-c3ccnc(F)c3)nn2)c1 | 4270 | 3600 | 280 | – | –
23 | COc1cccc([C@@H](C)NC(=O)[C@H]2CC[C@@H](c3ccncc3)CC2)c1 | > 5000 | 24300 | 4330 | – | –
24 | COc1cccc([C@@H](C)NC(=O)N2CCN(c3ccncc3)C(=O)C2)c1 | > 5000 | – | 534 | – | –
25 | COc1cccc([C@@H](C)NC(=O)[C@@H]2CC[C@@H](c3ccncc3)C[C@@H]2C)c1 | > 5000 | – | 851 | 11 (≈ 3.88 µg/mL) | –
26 | COc1cccc([C@@H](C)NC(=O)[C@H]2CC[C@H](c3ccncc3)C[C@H]2C)c1 | 963 | 33800 | 45 | 130 (≈ 45.8 µg/mL) | efflux ratio at 1 h, 10 µM (MDR1): 1.1; CLint scaled at 1 µM [7]: 90 mL/min/kg; Papp at 1 h, 10 µM [8]: 77.6 ×10⁻⁶ cm/s
27 | COc1cccc([C@@H](C)NC(=O)N2CCC(c3ccncc3F)CC2)c1 | 721 | 31800 | 45 | – | –
28 | COc1cccc(CC(=O)Nc2cc(-c3ccnc(F)c3)cs2)c1 | 830 | – | 15 | 17 (≈ 5.82 µg/mL) | logP [4]: 4.53; chromatographic logD [5]: 2.83
29 | COc1ccc(Cl)c([C@@H](C)NC(=O)N2CCN(c3ccncc3F)C[C@H]2C)c1 | 164 | 11600 | – | 120 (≈ 48.8 µg/mL) | logP [4]: 3.3; chromatographic logD [5]: 2.7; CLint scaled at 1 µM [7]: 199 mL/min/kg; Papp at 1 h, 10 µM [8]: 122 ×10⁻⁶ cm/s
30 | COc1cccc([C@@H](C)NC(=O)c2ccc(-c3ccncc3)nc2)c1 | 44 | 39 | 4 | – | –
31 | COc1cccc([C@@H](C)NC(=O)N2CCN(c3ccnc(F)c3)C[C@H]2C)c1 | 122 | 18900 | 6 | 170 (≈ 63.3 µg/mL) | bioavailability [12]: 36%; fAUC [13]: 30 nM·kg·h/mg; clearance [14]: 28.3 mL/min/kg; efflux ratio at 1 h, 10 µM (MDR1): 2.8; fAUC [15]: 100 nM·kg·h/mg; IC50 (Cytochrome P450 1A2): > 10000 nM; hepatic extraction ratio [16]: 0.31; CLint scaled at 1 µM [7]: 103 mL/min/kg; Papp at 1 h, 10 µM [8]: 58.1 ×10⁻⁶ cm/s; Ratio [17]: 0.2
